This is an account of results in patent US9487513B2, “Substituted pyrazolo[1,5-A]pyridines, their preparation and use as medicaments” (LABORATORIOS DEL DR. ESTEVE S.A., priority 2012, dated 2016).

Counter-ions that a name gives are not always drawn.

The test deals with T1, σ1-receptor (Cavia porcellus, UniProt Q60492).
T1 construct: Guinea pig brains were homogenized in 10 vols; (w/v) of Tris-HCl 50 mM 0.32 M sucrose; from tissue; host or cells: guinea pig brain membranes
T1 sequence (Q60492 whole entry): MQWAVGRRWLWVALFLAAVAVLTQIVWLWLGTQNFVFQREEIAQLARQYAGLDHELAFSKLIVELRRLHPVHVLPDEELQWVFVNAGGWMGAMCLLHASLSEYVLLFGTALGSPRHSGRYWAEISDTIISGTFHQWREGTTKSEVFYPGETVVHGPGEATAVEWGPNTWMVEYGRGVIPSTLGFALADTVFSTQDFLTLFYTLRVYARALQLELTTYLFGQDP
The test can be described thus: σ1-receptor binding assay, [3H]-(+)-pentazocine, guinea pig brain membranes. As to conditions: radioligand [3H]-(+)-pentazocine at 5.0 nM; guinea pig brain membrane; 150 min at 37° C.; nonspecific binding with 1 μM haloperidol. On the procedure:
Brain membrane preparation and binding assays for the σ1-receptor were performed as described (DeHaven-Hudkins, D. L., L. C. Fleissner, and F. Y. Ford-Rice, 1992, Characterization of the binding of [^3H](+)pentazocine to σ recognition sites in guinea pig brain, Eur. J. Pharmacol. 227, 371-378) with some modifications. Guinea pig brains were homogenized in 10 vols. (w/v) of Tris-HCl 50 mM 0.32 M sucrose, pH 7.4, with a Kinematica Polytron PT 3000 at 15000 r.p.m. for 30 s. The homogenate was centrifuged at 1000 g for 10 min at 4° C. and the supernatants collected and centrifuged again at 48000 g for 15 min at 4° C. The pellet was resuspended in 10 volumes of Tris-HCl buffer (50 mM, pH 7.4), incubated at 37° C. for 30 min, and centrifuged at 48000 g for 20 min at 4° C. Following this, the pellet was re-suspended in fresh Tris-HCl buffer (50 mM, pH 7.4) and stored on ice until use.
The radioligand used was [^3H]-(+)-pentazocine at 5.0 nM and the final volume was 200 μl. The incubation was initiated with the addition of 100 μl of membrane at a final tissue concentration of approximately 5 mg tissue net weight/mL and the incubation time was 150 m. at 37° C. After incubation, the membranes were collected onto pretreated glass fiber filterplate (MultiScreen-FC, Millipore), with polyethylenimine 0.1%. The filters were washed two times with 200 μl of washing buffer (50 mM Tris Cl, pH=7.4) and then 25 μl of Ecoscint H liquid scintillation cocktail were added. Microplates were allowed to set for several hours and then quantified by liquid scintillation spectrophotometry (1450 Microbeta, Wallac). Nonspecific binding was determined with 1 μM haloperidol.
Regarding `c1c(OCCN2CCCCCC2)nn2c1CCCC2` [Example 53, 2-(2-(azepan-1-yl)ethoxy)-4,5,6,7-tetrahydropyrazolo[1,5-a]pyridine maleate], the affinity, expressed as Ki, was 25.9 nM.
As for `c1c(OCCCCN2CCOCC2)nn2c1CCCC2` [Example 56, 4-(4-(4,5,6,7-tetrahydropyrazolo[1,5-a]pyridin-2-yloxy)butyl)morpholine oxalate], the affinity corresponds to a Ki of 181 nM.
In the case of `c1c(OCCCCN2CCCC2)nn2c1CCCC2` [Example 59, 2-(4-(pyrrolidin-1-yl)butoxy)-4,5,6,7-tetrahydropyrazolo[1,5-a]pyridine oxalate], the Ki (usually a measure of affinity in units of concentration, obtained from inhibition or displacement) came out at 167 nM. The Ki values of the last two compounds are within 1.5-fold of each other.
Take `c1c(OCCCCN2CCCCC2)nn2c1CCCC2` [Example 60, 2-(4-(piperidin-1-yl)butoxy)-4,5,6,7-tetrahydropyrazolo[1,5-a]pyridine oxalate]: the Ki is 40.7 nM.
As for `c1c(OCCCCN2CCCCC2)nn2c1CCCC2` [Example 61, 2-(4-(piperidin-1-yl)butoxy)-4,5,6,7-tetrahydropyrazolo[1,5-a]pyridine maleate], the Ki is 28.5 nM. The Ki values of the last two compounds are within 1.5-fold of each other.
In turn, `c1ccc(C2CCN(CCCCOc3cc4n(n3)CCCC4)CC2)cc1` [Example 63, 2-(4-(4-phenylpiperidin-1-yl)butoxy)-4,5,6,7-tetrahydropyrazolo[1,5-a]pyridine oxalate] had a Ki of 9.2 nM.
As for `CN(CCOc1cc2n(n1)CCCC2)Cc1ccccc1` [Example 64, N-benzyl-N-methyl-2-(4,5,6,7-tetrahydropyrazolo[1,5-a]pyridin-2-yloxy)ethanamine oxalate], affinity was put at a Ki of 15.4 nM.
The compound `CC(C)(C)C1CCN(CCCCOc2cc3n(n2)CCCC3)CC1` [Example 65, 2-(4-(4-tert-butylpiperidin-1-yl)butoxy)-4,5,6,7-tetrahydropyrazolo[1,5-a]pyridine maleate] gave an inhibitory constant (Ki) of 8.3 nM.
As for `CC(C)(C)C1CCN(CCOc2cc3n(n2)CCCC3)CC1` [Example 66, 2-(2-(4-tert-butylpiperidin-1-yl)ethoxy)-4,5,6,7-tetrahydropyrazolo[1,5-a]pyridine maleate], the figure is 5.5 nM.
Compound `CN(CCCCOc1cc2n(n1)CCCC2)C1CCN(Cc2ccccc2)CC1` [Example 67, 1-benzyl-N-methyl-N-(4-(4,5,6,7-tetrahydropyrazolo[1,5-a]pyridin-2-yloxy)butyl)piperidin-4-amine dimaleate] returned a Ki of 65.7 nM.
As to `c1c(OCCCCN2CCC3CCCCC3C2)nn2c1CCCC2` (stereo not drawn) [Example 68, 2-(4-(4,5,6,7-tetrahydropyrazolo[1,5-a]pyridin-2-yloxy)butyl)decahydroisoquinoline maleate], the affinity corresponds to a Ki of 7.3 nM.
Take `c1c(OCCCCN2CCN(C3CCCCC3)CC2)nn2c1CCCC2` [Example 69, 2-(4-(4-cyclohexylpiperazin-1-yl)butoxy)-4,5,6,7-tetrahydropyrazolo[1,5-a]pyridine maleate]: the Ki worked out at 41.6 nM.
`c1ccc2c(c1)COC21CCN(CCCCOc2cc3n(n2)CCCC3)CC1` [Example 70, 1′-(4-(4,5,6,7-tetrahydropyrazolo[1,5-a]pyridin-2-yloxy)butyl)-3H-spiro[isobenzofuran-1,4′-piperidine]maleate] returned a Ki of 21.6 nM.
With `c1c(OCCN2CCN(C3CCCCC3)CC2)nn2c1CCCC2` [Example 71, 2-(2-(4-cyclohexylpiperazin-1-yl)ethoxy)-4,5,6,7-tetrahydropyrazolo[1,5-a]pyridine maleate] the figure was 39.3 nM.
With `CN(CCOc1cc2n(n1)CCCC2)C1CCN(Cc2ccccc2)CC1` [Example 72, 1-benzyl-N-methyl-N-(2-(4,5,6,7-tetrahydropyrazolo[1,5-a]pyridin-2-yloxy)ethyl)piperidin-4-amine maleate] the figure was 35 nM; with `c1ccc2c(c1)COC21CCN(CCOc2cc3n(n2)CCCC3)CC1` [Example 74, 1′-(2-(4,5,6,7-tetrahydropyrazolo[1,5-a]pyridin-2-yloxy)ethyl)-3H-spiro[isobenzofuran-1,4′-piperidine]maleate], 30.6 nM; with `c1c(OCCNC23CC4CC(CC(C4)C2)C3)nn2c1CCCC2` [Example 75, N-adamantyl-2-(4,5,6,7-tetrahydropyrazolo[1,5-a]pyridin-2-yloxy)ethanamine maleate], 31.7 nM.
For the compound `c1c(OCCCCN2CCCCCC2)nn2c1CCCC2` [Example 78, 2-(4-(azepan-1-yl)butoxy)-4,5,6,7-tetrahydropyrazolo[1,5-a]pyridine maleate], the Ki was found to be 26.1 nM. This Ki and that of the compound before are within 1.5-fold of each other.
`CCCN(CCCCOc1cc2n(n1)CCCC2)CC1CC1` [Example 80, N-(cyclopropylmethyl)-N-propyl-4-(4,5,6,7-tetrahydropyrazolo[1,5-a]pyridin-2-yloxy)butan-1-amine maleate] gave a Ki of 25 nM.
As for `c1c(OCCCCN2CC[C@H]3CCCC[C@@H]3C2)nn2c1CCCC2` [Example 81, (4aR,8aS)-2-(4-(4,5,6,7-tetrahydropyrazolo[1,5-a]pyridin-2-yloxy)butyl)decahydroisoquinoline maleate], the figure is 12.8 nM; as for `CN(CCCCOc1cc2n(n1)CCCC2)Cc1ccccc1` [Example 82, N-benzyl-N-methyl-4-(4,5,6,7-tetrahydropyrazolo[1,5-a]pyridin-2-yloxy)butan-1-amine maleate], 8.1 nM; as for `c1c(OCCCCNC23CC4CC(CC(C4)C2)C3)nn2c1CCCC2` [Example 83, N-adamantyl-4-(4,5,6,7-tetrahydropyrazolo[1,5-a]pyridin-2-yloxy)butan-1-amine maleate], 34.8 nM.
As for `c1ccc2c(c1)CCN(CCCCOc1cc3n(n1)CCCC3)C2` [Example 84, 2-(4-(4,5,6,7-tetrahydropyrazolo[1,5-a]pyridin-2-yloxy)butyl)-1,2,3,4-tetrahydroisoquinoline maleate], the Ki was found to be 15.7 nM.
On to `c1c(OCCCCNC2CCCCC2)nn2c1CCCC2` [Example 85, N-(4-(4,5,6,7-tetrahydropyrazolo[1,5-a]pyridin-2-yloxy)butyl)cyclohexanamine maleate], for which the Ki was found to be 42.5 nM. Compared with the last compound, the Ki is about 2.7-fold higher.
The compound `c1c(OCCCCN2CCSCC2)nn2c1CCCC2` [Example 86, 4-(4-(4,5,6,7-tetrahydropyrazolo[1,5-a]pyridin-2-yloxy)butyl)thiomorpholine maleate] gave a Ki of 8.4 nM.
Take `c1c(OCCN2CC[C@H]3CCCC[C@@H]3C2)nn2c1CCCC2` [Example 87, (4aR,8aS)-2-(2-(4,5,6,7-tetrahydropyrazolo[1,5-a]pyridin-2-yloxy)ethyl)decahydroisoquinoline maleate]: the Ki stood at 3.3 nM.
As for `c1c(OCCCCN2CCCOCC2)nn2c1CCCC2` [Example 89, 4-(4-(4,5,6,7-tetrahydropyrazolo[1,5-a]pyridin-2-yloxy)butyl)-1,4-oxazepane maleate], the affinity corresponds to a Ki of 10.1 nM.
Compound `CCCN(CCOc1cc2n(n1)CCCC2)CC1CC1` [Example 90, N-(cyclopropylmethyl)-N-(2-(4,5,6,7-tetrahydropyrazolo[1,5-a]pyridin-2-yloxy)ethyl)propan-1-amine maleate] yielded a Ki of 28.5 nM.
With `CC(C)N1CCN(CCOc2cc3n(n2)CCCC3)CC1` [Example 91, 2-(2-(4-isopropylpiperazin-1-yl)ethoxy)-4,5,6,7-tetrahydropyrazolo[1,5-a]pyridine maleate] the figure was 195 nM; with `CC(C)N1CCN(CCCCOc2cc3n(n2)CCCC3)CC1` [Example 92, 2-(4-(4-isopropylpiperazin-1-yl)butoxy)-4,5,6,7-tetrahydropyrazolo[1,5-a]pyridine maleate], 182 nM.
`CN1CCN(CCCCOc2cc3n(n2)CCCC3)CC1` [Example 93, 2-(4-(4-methylpiperazin-1-yl)butoxy)-4,5,6,7-tetrahydropyrazolo[1,5-a]pyridine maleate] yielded a Ki of 167 nM. This Ki and that of the compound before are within 1.5-fold of each other.
The compound `CN1CCCN(CCCCOc2cc3n(n2)CCCC3)CC1` [Example 96, 2-(4-(4-methyl-1,4-diazepan-1-yl)butoxy)-4,5,6,7-tetrahydropyrazolo[1,5-a]pyridine maleate] returned a Ki of 180 nM.
`CCN1CCN(CCCCOc2cc3n(n2)CCCC3)CC1` [Example 98, 2-(4-(4-ethylpiperazin-1-yl)butoxy)-4,5,6,7-tetrahydropyrazolo[1,5-a]pyridine maleate] registered a Ki of 138 nM.
The compound `c1c(OCCCN2CCCCC2)nn2c1CCCC2` [Example 99, 2-(3-(piperidin-1-yl)propoxy)-4,5,6,7-tetrahydropyrazolo[1,5-a]pyridine maleate] registered a Ki of 97.2 nM.
With `c1c(OCCCN2CCN(C3CCCCC3)CC2)nn2c1CCCC2` [Example 100, 2-(3-(4-cyclohexylpiperazin-1-yl)propoxy)-4,5,6,7-tetrahydropyrazolo[1,5-a]pyridine maleate] the figure was 37.1 nM; with `c1c(OCCCN2CCCOCC2)nn2c1CCCC2` [Example 101, 4-(3-(4,5,6,7-tetrahydropyrazolo[1,5-a]pyridin-2-yloxy)propyl)-1,4-oxazepane], 48.1 nM.
